Results taken from a melting point compilation (Tetko et al.; mined from patent text by program, amines drawn as free bases though some values may be those of a salt).

SMILES	melting point
CN(c1cccc2cc(C3=NCC(CC(N)=O)S3)[nH]c12)S(=O)(=O)c1cccnc1 (stereo unspecified)	185 to 186 °C
CC(F)(F)c1cccc(C[C@H](N)[C@H](O)c2ccc(F)cc2)c1 (racemic)	101 to 102 °C
O=C(CNC(=O)C(Cc1ccccc1)P(=O)(O)O)OCc1ccccc1 (stereo unspecified)	208 to 228 °C
O=[N+]([O-])c1ccc(NS(=O)(=O)c2cccc3ccccc23)cc1	210 to 215 °C
CCOC(=O)C1=C(C)Nc2cc(=O)[nH]n2C1c1cccc(Cl)c1Cl (stereo unspecified)	213 to 218 °C
Cc1cccc(NS(=O)(=O)c2ccc([N+](=O)[O-])cc2)c1	121 to 124 °C
O=C(OC(C(F)(F)F)C(F)(F)F)c1c2ccccc2nc2ccccc12	143 to 145 °C
CCCCNC(=O)NC1CCNCC1	132 to 134 °C
COc1cccc(-c2cn(N=Cc3ccccc3)c(N)n2)c1	170 to 171 °C
CS(=O)(=O)Nc1cc2oc(N)cc(=O)c2cc1Oc1ccccc1	223 to 225 °C
CC(C)C(=O)Oc1ccc2nc(NC(=O)Nc3ccccc3)sc2c1	212 to 215 °C
O=C(c1ccccc1)c1ccc(F)c([N+](=O)[O-])c1	59 °C
CCCOc1cc(C(=O)O)cc([N+](=O)[O-])c1-c1ccccc1	142 to 144 °C
Cn1nc(C(F)(F)F)n(-c2ccc([N+](=O)[O-])cc2Cl)c1=S	152 to 155 °C
N#Cc1ccc(CN(N)c2ccc(Br)cc2)cc1	114 °C
CCC(C)C(OCc1ccccc1)C1C(C(=O)NCC(=O)O)NC(C2CC2)C1[N+](=O)[O-] (stereo unspecified)	161 to 163 °C
CN(C)S(=O)(=O)c1cc(Cl)c(Cl)c(Cl)c1SCSC#N	155 to 156 °C
Oc1noc2ccc(F)cc12	201 to 203 °C
O=C1C=c2cc3c(cc2CC1=O)=CCO3	158 to 160 °C
Cc1ccc(S(=O)(=O)N(C)c2ccc(Cl)cc2C(N)=S)cc1	180 to 182 °C
CC(C)CCCc1c(-c2ccc(S(C)(=O)=O)cc2)cnn(-c2ccc(F)c(F)c2)c1=O	111 to 113 °C
CC(=O)N1c2ccccc2CC1C(N)=S (stereo unspecified)	194 to 195 °C
Oc1cc(C(O)(c2ccccc2)c2ccccc2)c2ccccc2n1	> 350 °C

SMILES	melting point
CNC(=O)c1cccc(Br)c1	126 °C
C=CCCC(C#N)(C#N)Cc1ccc(Cl)cc1	63.7 °C
COc1ccc(C(CCN(C)C)c2ncc[nH]2)cc1 (stereo unspecified)	131 to 133 °C
CCOC(=O)C1=C(C)N=C(N)C(C)(C(=O)OCC)C1c1ccccc1 (stereo unspecified)	139 °C
CCCc1c(C(=O)OCC)sc2[nH]c(=O)c(=O)[nH]c12	305 to 307 °C
CCc1cc(O)n2nc(CC)c(C)c2n1	287 °C
COc1cc2c(cc1Br)CC/C2=C\C#N	180 to 182 °C
Cc1ccc(Oc2ccc(C)cc2C(=O)O)cc1	113 to 115 °C
CCC(CC)Nc1c([N+](=O)[O-])cc(C(C)C)c(C=CN(C)C)c1[N+](=O)[O-]	88 to 89.5 °C
CCN(CC)CC#CC(=O)Nc1ccc2ncc(C#N)c(Nc3cccc(Br)c3)c2c1	133 to 135 °C
CCCc1c(CSc2ncccc2OCC(=O)O)ccc(C(C)=O)c1O	157 °C
C#Cc1ccc2c(c1)N(c1ncnc3cc(OC)c(OC)cc13)CC2	241 to 243 °C
OCCSc1nc(-c2ccccc2)c2cc(Cl)ccc2n1	124 °C
COC(=O)c1cccc(Nc2ccc(OC)cc2)c1	120 °C
CC(=NC1CCCCC1)N(C)C=Nc1ccc(C)cc1C	37 to 39 °C
CC1(C)C=C(c2ccccc2)c2ccccc2N1	79.5 to 81 °C
Cc1nnsc1C(=O)Nc1ccccc1C(=O)O	223 °C
OCCCc1cnoc1-c1ccc(F)c(Br)c1	57 to 58 °C
Cc1ccc(C(=O)/C(=C\c2ccccc2)C(=O)OC(C)(C)C)c(O)c1	92 to 95 °C
CCOC(=O)c1c(COC(C)=O)cccc1S(=O)(=O)NC(C)(C)C	81 to 82 °C
Cc1sc(N)c(C(=O)c2ccccn2)c1C	136 to 139 °C
O=C(N[C@@H](Cc1ccc(OCc2ccsc2)cc1)C(=O)O)c1cn2cc(-c3ccc(Cl)cc3)ccc2n1	203 °C
NNP(=S)(Oc1ccccc1)Oc1ccccc1	59 to 61 °C

SMILES	melting point
Cc1c(OC(F)F)ccnc1CSc1nc2ccc(OC(F)F)cc2[nH]1	181 to 182 °C
Cc1csc(CNC(=O)c2sc(N3CCN(CC4CC4(F)F)C3=O)nc2C)n1 (stereo unspecified)	157 to 159 °C
COCCC(=O)c1cc(C(=O)OC)c(N)cc1C(F)(F)F	89 to 91 °C
COC(=O)c1sc(-c2ccccc2)c(O)c1O	143 to 144 °C
CCCSc1sc(C(N)=O)c2c1-c1nn(C)cc1CC2	208 to 209 °C
COC(=O)CCSSN=C1C(=O)N(C)C(=O)N1c1ccccc1F	81 to 84.5 °C
Nc1cccc(C(F)(F)F)c1CCl	155 to 161 °C
CC(=O)Nc1ccc(-c2cc3[nH]c(=O)[nH]c3nc2C)cc1	> 300 °C
O=S(=O)(Oc1cc(I)c(I)cc1OS(=O)(=O)C(F)(F)F)C(F)(F)F	46.5 to 47.7 °C
CC1=NN(CC(C)C)S(=O)(=O)c2sc(S(N)(=O)=O)cc21	140 to 142 °C
OC[C@@H](O)COc1ccc(OCc2ccccc2)cc1	125 to 126 °C
COC(=O)C1(CC(N)=O)C(=O)N(C)C(=O)c2ccc(Cl)cc21 (stereo unspecified)	220 to 222 °C
CC1c2ccccc2-c2ccccc2N1S(=O)(=O)c1ccc(O)c(CO)c1 (stereo unspecified)	182 to 184 °C
CCN(CC)C(C)CNc1ccc(NCC(C)N(CC)CC)c2c1C(=O)c1c(O)ccc(O)c1C2=O (stereo unspecified)	126 to 128 °C
Nc1nc(NCc2ccccc2)nc(-c2cc(Cl)ccc2Cl)n1	200 to 201 °C
CSc1nc(-c2nn[nH]n2)c(I)c(C(F)(F)F)n1	196 to 200 °C
O=C(O)Cc1ccc(Oc2cccc(C(F)(F)F)c2)cc1	61 to 63 °C
COC(=O)c1cccc(Oc2cccc(-c3nn(Cc4ccc(C(F)(F)P(=O)(O)O)c(Cl)c4)c(=Nc4ccc(Cl)c(Cl)c4)s3)c2)c1	137 to 139 °C
CC1=CC(=O)c2nc3n(c2C1=O)CCC3	162 to 164 °C
CCOC(=O)c1cc(N(C)C)ncn1	40 to 42 °C
Cc1cc(C)n(Cc2ccccc2Cl)c(=O)c1C#N	243 to 245 °C

Further lines, results first:

melting point	SMILES
134 °C	CC(=O)NC1(Cc2ccccc2)CCN(Cc2ccccc2)CC1
114 to 121 °C	Cc1c(-c2ccc(O)cc2)n(Cc2ccc(OCCN3C(C)CCCC3C)cc2)c2ccc(O)cc12 (stereo unspecified)
130 to 131 °C	COc1ccc(Cn2ccc3c(-c4ccco4)ncnc32)cc1
109 to 111 °C	CN(CCCNc1ncc(Cc2ccc(O)cc2)c(=O)[nH]1)c1ccccn1
199 °C	O=Cc1ccccc1C=C1c2ccccc2CCc2ccccc21
186 to 187 °C	O=C(Nc1cccc2c1C(=O)c1c-2n[nH]c1-c1ccc(C(=O)N2CCN(CCO)CC2)s1)NN1CCOCC1
271 to 272 °C	O=C(C#Cc1ccc(C(=O)O)cc1)Nc1ccccc1
200 to 202 °C	O=C(CCc1cc2cccnc2n(-c2cccc([N+](=O)[O-])c2)c1=O)c1ccncc1
228 to 230 °C	Cc1cccc(-n2c(-c3cc(-c4ccc(Cl)cc4)c(N4CCOCC4)s3)nc3ccccc3c2=O)c1
100 to 102 °C	Cc1ccc(C(=O)OC2CCN(Cc3cccc(N)c3)CC2)cc1
171 to 172 °C	CCN(CC)CCn1nc2c3c(c(NCCN4C(=O)c5ccccc5C4=O)ccc31)Sc1cc(OC)ccc1-2
178 to 180 °C	Nc1sc2c(c1C(=O)c1cccc3ccccc13)CCN(Cc1ccccc1)C2
65 to 67 °C	O=C(Oc1ccccc1)c1cc(Br)nn1-c1ncccc1Cl
124 °C	COc1ccc(C2CCN(C(=O)C(=O)NO)CC2)cc1OC1CCCC1
102 to 105 °C	N#CC=C1CCN(c2ccc(N3C[C@H](CNC(=S)CO)OC3=O)cc2F)CC1
118 to 120 °C	CCCCN1CCN(c2cccc3c2C[C@H](NC(C)=O)CC3)CC1
179 to 180 °C	CC(C)c1cn2ccccc2c1S(=O)(=O)c1ccc(O)cc1

melting point	SMILES
118 to 119 °C	ClCc1ccc(OCc2ccc3ccccc3n2)nc1
166 °C	O=C(O)CCc1c[nH]c2c(C(=O)c3ccccc3)cccc12
288 to 290 °C	CN1C(=O)CCCc2cc(Nc3ncc(Cl)c(Nc4ccc(N5CCOCC5)cc4C(N)=O)n3)ccc21
83 to 87 °C	CC(C)(C)c1ccc(S(=O)(=O)N2c3ccccc3C[C@H]2C(=O)NCc2ccc(N)cc2)cc1
79 to 81 °C	Clc1cccc(C2CCN(CCCCOc3ccc4scnc4c3)CC2)c1Cl
172 °C	NC(=O)COc1ccc2c(-c3ccccc3F)noc2c1Cl
110 to 116 °C	Cc1cccc(-c2[nH]c(C(C)C)nc2-c2cccc(-c3ccc(S(=O)(=O)N4CCN(C)CC4)cc3)c2)n1
113 to 115 °C	Brc1cccc(C2Cc3cnc(Nc4ccc(CCN5CCN(c6ccccc6)CC5)cc4)nc3-c3ccccc32)c1 (stereo unspecified)
138 to 140 °C	Cc1cccc(C(=O)Nc2ccc(N3CCN(Cc4ccccc4)CC3)nc2)c1-c1ccc(C(C)C)cc1
82 °C	CCCCC(=O)N(Cc1ccc2c(c1)CCc1ccccc1N2CC#N)C(C(=O)O)C(C)C (stereo unspecified)
57 to 59 °C	COC(=O)C(=O)c1ccc(OCCCCOc2ccccc2)cc1
153 to 157 °C	CCCOc1ccccc1CCCOc1ccc2c(c1)C=C(C(=O)O)CCS2(=O)=O
236 °C	O=C(N[C@H]1CC[C@H](CCN2CCN(c3nccc4c3OCC4)CC2)CC1)c1ccc(-n2cccc2)cc1
152 to 156 °C	CC(=O)OC1C(Oc2cccc(O)c2C(=O)CCc2ccc3occc3c2)OC(CO)C(O)C1O (stereo unspecified)
110 to 112 °C	CCOC(=O)CSc1nc(Cl)cc(Nc2ccc(-c3ccccc3)cc2)n1
172 to 174 °C	Nc1ncccc1-c1nc2cccnc2n1-c1ccc(CNC(=O)c2ccccn2)cc1
176 to 178 °C	Cc1ccc(NC(=O)CN2CCNCC2)cc1Nc1ncc(-c2cccnc2)o1
